Read-outs that look alike come from different tables or passages of the source.

The conditions of data set [1]: amide bond.
For data set [2] the following is noted: amide bond, HATU/DIEA.
The subject of another data set is MDR1. The data set can be described thus: MDCK-MDR1 permeability assay. It counts as in vitro ADME. Conditions: dog; for Papp A→B at 2 h, 3 μM: MDCK-MDR1, MDCK-MDR1 cells, apical to basolateral, 3 μM test compound, 2 hours at 37 degrees C; for efflux ratio at 2 h, 3 μM: MDCK-MDR1, Papp (basolateral to apical) divided by Papp (apical to basolateral), MDCK-MDR1 cells, read-out: Efflux ratio (ER). The method, then:
The bidirectional permeability (Apical to Basal and Basal to Apical directions) of test compounds in MDCK-MIDR1 cells were evaluated using MDCK-MIDR1 cells seeded in Solvo PreadyPort™ MIDCK 96-well plate. Once the plate was received from ReadyCell (Barcelona, Spain), it was treated as per PreadyPort™ user's manual.
For the Apical to Basolateral (A→B) permeability, 80 μL of test compound (3 μM) co-dosed with LY (Lucifer Yellow) (100 μM) in HBSS (Hank's Balanced Salt Solution) assay buffer was added to the donor side (A) while 250 μL of HBSS buffer was added to the receiver side (B). For the Basolateral to Apical (B→A) permeability, 255 μL of test compound (3 μM) in HBSS assay buffer was added to the donor side (B) while 75 μL of HBSS buffer containing LY (100 μM) was added to the receiver side (A).
The plate was placed in an incubator set at 37 degrees C. After 10 minutes of pre-warming, 5 μL aliquot was taken from donor compartment and set aside as the dosing solution. The MDCK-MDR1 incubation plate was placed back into the incubator for 2 hours of incubation at 37 degrees C. After 2 hours of incubation, 25 μL and 5 μL aliquots were removed from the receiver and donor sides, respectively. To the 5 μL aliquots taken from the donor sides (before and after a 2-hour incubation) were diluted with 20 μL of the HBSS buffer. All samples were mixed with 150 μL with acetonitrile containing internal standard (IS) and 200 μL water, and analyzed by LC-MS/MS.
The apparent permeability (Papp) was calculated using the following formula: Papp=dQ/dt×1/A×C0 where: • dQ/dt: amount of translocated material over incubation time (nmol/s) • A: area of insert (0.14 cm^2 for PreadyPort™ MDR1-96) • C0: initial concentration of product applied in apical (A→B) or basal (B→A) compartment (nmol/mL)
The efflux ratio (ER) was measured by dividing the Papp (basolateral to apical direction) by Papp (apical to basolateral direction). It is a general measure of the involvement of active processes. An ER>2 is considered positive for active transport.
The data reported in Table 3 were obtained according to the MDCK-MIDR1 permeability assay described above.

For another data set, the system named is Sprague-Dawley rats. Kind of data set: Assessment of wake promotion in Sprague-Dawley rats (EEG/EMG). As to conditions: Rattus norvegicus; PO, 3 mpk, male Sprague-Dawley rats, dosed at ZT5, 6-hour post-dose period; read-out: Mean cortical activation time (% vehicle treatment). It counts as in vivo. The method, then:
Wake promotion was assessed using electroencephalography (EEG) and electromyography (EMG) in adult male Sprague-Dawley rats (350-600 g). All rats (Charles River Laboratories, Raleigh, NC, USA) were intraperitoneally implanted with telemetry devices (F50-EEE, Data Sciences International Inc., M/N, USA) under isoflurane anesthesia. For EEG, stainless steel screws were implanted over frontal cortex and parietal cortex, and reference screws were placed over cerebellum. Additionally, an electrode was placed in neck muscle for EMG. Rats were given carprofen post-surgery and underwent a 7 to 10-day recovery period. Rats habituated to the experimental room for 7 days and were maintained on a 12-hour light-dark cycle.
EEG and EMG data were recorded using the DSI telemetry system and Ponemah software (Data Sciences International Inc., MN, USA). Sleep-wake stages were scored both manually and with Somnivore, a supervised machine learning software platform, in 10 second epocs. Records were visually inspected as needed post-processing.
All test compounds were dissolved in 5% DMSO and suspended in 95% saline with 0.5% methylcellulose and 0.5% tween. […] Unless otherwise indicated, all compounds were dosed orally. Recordings for each rat were initiated immediately after dosing and lasted for 6 hours post-dose.
Two key endpoints include wakefulness time and cortical activation time. Wakefulness time is derived from the sleep-wake stage analysis. Cortical activation time is based on the duration in which frontal gamma oscillatory activity (30-100 Hz), a key feature of wakefulness, was elevated relative to a pre-treatment baseline. Mean cortical activation time was computed relative to vehicle treatment for the 6-hour post-dose period.

Data set [3] in a line: Hepatocytes stability assay (human hepatocytes). It counts as in vitro ADME. As to conditions: both sexes, cryopreserved hepatocytes, 1 μM test compound, 1×10^6 cell/mL, 37 degrees C, read-out: CLint (μL/min/million cells). The essentials:
(§1)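 Cryopreserved pooled (50 donors, mixed gender) human hepatocytes at 1×10^6 cells/mL in Krebs-Henseleit buffer with 1 μM compound (0.1% DMSO), 37 degrees C, sampled 0–240 min. Parent depletion by LC-MS/MS; first-order fit gave T1/2 and CLint, scaled to hepatic clearance via well-stirred model (fu assumed 1); extraction ratio = CL,hep/liver blood flow.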

In the next data set the test system is human hepatocytes. The data set can be described thus: Hepatocytes stability assay (human hepatocytes). As to conditions: scaled hepatic clearance divided by liver blood flow, fu assumed unity. It counts as in vitro ADME. The essentials:
as §1

As to `CC(C)(C)OC(=O)NC1CCCN2C(=O)COc3cnccc3C3CCC(CC3)OCC12` (centres unmarked), the ring closure, isolated yield in data set [1] (from CC(C)(C)OC(=O)NC1CCCNC1COC1CCC(c2ccncc2OCC(=O)O)CC1, 13-membered ring, HATU/DIEA, MeCN, 0.22 mM, 2.0 h) came out at 23.4%.

`CC(C)(C)OC(=O)N[C@H]1CCCN2C(=O)CCCOc3ccccc3C3CCC(CC3)OC[C@@H]12`: the ring closure, isolated yield in data set [1] (from CC(C)(C)OC(=O)N[C@H]1CCCN[C@H]1COC1CCC(c2ccccc2OCCCC(=O)O)CC1, 15-membered ring, HATU/DIEA, MeCN/DMF 8:1, 18.1 mM, 2.0 h) was found to be 77.9%.

With `CC(C)(C)OC(=O)N[C@H]1CCCN2C(=O)CCOc3ccccc3C3CCC(CC3)OC[C@@H]12`, the ring closure, yield after HPLC in data set [2] (from CC(C)(C)OC(=O)N[C@H]1CCCN[C@H]1COC1CCC(c2ccccc2OCCC(=O)O)CC1, 14-membered ring, MeCN, 7.4 mM, 18.0 h) turned out to be 80.3%.

Take `CC(C)(C)OC(=O)N[C@H]1CCCN2C(=O)COc3cccc(F)c3C3=CCC(CC3)OC[C@@H]12` (some centres unmarked): the ring closure, isolated yield in data set [1] (from CC(C)(C)OC(=O)N[C@H]1CCCN[C@H]1COC1CC=C(c2c(F)cccc2OCC(=O)O)CC1, 13-membered ring, HATU/DIEA, MeCN, 2.1 mM, 2.0 h) was 71%.

As to `CC(C)(C)OC(=O)N[C@H]1CCCN2C(=O)COc3nccnc3C3CCC(CC3)OC[C@@H]12`, the ring closure, isolated yield in data set [1] (from CC(C)(C)OC(=O)N[C@H]1CCCN[C@H]1COC1CCC(c2nccnc2OCC(=O)O)CC1, 13-membered ring, HATU/DIEA, MeCN, 2.16 mM, 1.0 h) was determined as 42.1%.

In data set [1] (from CC(C)(C)OC(=O)N[C@H]1CCCN[C@H]1COC1CCC(c2ccnnc2OCC(=O)O)CC1, 13-membered ring, HATU/DIEA, MeCN, 0.94 mM, 25.0 °C, 2.0 h), `CC(C)(C)OC(=O)N[C@H]1CCCN2C(=O)COc3nnccc3C3CCC(CC3)OC[C@@H]12` displayed a ring closure, isolated yield of 76%.

In the case of `COc1ccc(CNC2CCN3C(=O)C(F)(F)Oc4c(F)cc(F)cc4C4CCC(CC4)OCC23)cc1` (centres unmarked), in data set [1] (from COc1ccc(CNC2CCNC2COC2CCC(c3cc(F)cc(F)c3OC(F)(F)C(=O)O)CC2)cc1, 13-membered ring, HATU/diisopropylamine, DCM/MeCN 1:1, 18.5 mM, 3.0 h), the ring closure, isolated yield amounted to 39.3%.

The term Papp A→B denotes how fast a substance crosses the layer from the apical side. A higher Papp A→B goes with fast passage. As to `CS(=O)(=O)N[C@H]1CCCN2C(=O)COc3ccccc3C3CCC(CC3)OCC12` (some centres unmarked) [Compound 2], in the data set on MDR1, the Papp A→B at 2 h, 3 μM turned out to be 0.89 ×10⁻⁶ cm/s and the efflux ratio at 2 h, 3 μM came to 39. The response vs control in vivo at 3 mg/kg in the data set with Sprague-Dawley rats came out at 190%. The hepatocyte CLint at 1 μM in data set [3] was 13 µL/min/1e6 cells. Besides, in the data set with human hepatocytes, the “Extraction Ratio (ER)” value stood at 0.67.

Turning to `CS(=O)(=O)N[C@H]1CCN2C(=O)COc3ccccc3C3CCC(CC3)OCC12` (some centres unmarked) [Compound 7], in the data set with MDR1, the Papp A→B at 2 h, 3 μM is 14 ×10⁻⁶ cm/s and the efflux ratio at 2 h, 3 μM came out at 2.2. Besides, the response vs control in vivo at 3 mg/kg in the data set with Sprague-Dawley rats was 165%. Besides, the hepatocyte CLint at 1 μM in data set [3] turned out to be 24 µL/min/1e6 cells. For the same compound, in the data set with human hepatocytes, the “Extraction Ratio (ER)” value turned out to be 0.78.

Consider `CS(=O)(=O)N[C@H]1CCCN2C(=O)COc3c(F)cc(F)cc3C3CCC(CC3)OCC12` (some centres unmarked) [Compound 12], for which, in the data set on MDR1, the Papp A→B at 2 h, 3 μM amounted to 2.3 ×10⁻⁶ cm/s and the efflux ratio at 2 h, 3 μM amounted to 6.2. Further, in the data set with Sprague-Dawley rats, the response vs control in vivo at 3 mg/kg was 236%. In addition, the hepatocyte CLint at 1 μM in data set [3] was 13 µL/min/1e6 cells. In addition, the “Extraction Ratio (ER)” value in the data set on human hepatocytes stood at 0.66.

On to `CS(=O)(=O)N[C@H]1CCCN2C(=O)COc3ncccc3C3CCC(CC3)OCC12` (some centres unmarked) [Compound 46], for which, in the data set with MDR1, the Papp A→B at 2 h, 3 μM came to 0.31 ×10⁻⁶ cm/s and the efflux ratio at 2 h, 3 μM worked out at 58. Besides, the response vs control in vivo at 3 mg/kg in the data set with Sprague-Dawley rats came to 157%. In addition, the hepatocyte CLint at 1 μM in data set [3] is 6.9 µL/min/1e6 cells. For the same compound, the “Extraction Ratio (ER)” value in the data set with human hepatocytes is on record as 0.51.

As for `CS(=O)(=O)N[C@H]1CCCN2C(=O)COc3ccc(Cl)cc3C3CCC(CC3)OCC12` (some centres unmarked) [Compound 51], in the data set with MDR1, the Papp A→B at 2 h, 3 μM is 0.59 ×10⁻⁶ cm/s and the efflux ratio at 2 h, 3 μM is 21. Further, the response vs control in vivo at 3 mg/kg with Sprague-Dawley rats was 166%. Further, the hepatocyte CLint at 1 μM in data set [3] was determined as 4.6 µL/min/1e6 cells. In addition, the “Extraction Ratio (ER)” value in the data set on human hepatocytes was 0.41.

Regarding `CS(=O)(=O)N[C@H]1CCCN2C(=O)COc3nccnc3C3CCC(CC3)OCC12` (some centres unmarked) [Compound 55], in the data set with MDR1, the Papp A→B at 2 h, 3 μM was 0.092 ×10⁻⁶ cm/s and the efflux ratio at 2 h, 3 μM amounted to 77. Also, the response vs control in vivo at 3 mg/kg in the data set on Sprague-Dawley rats was found to be 145%. Besides, in data set [3], the hepatocyte CLint at 1 μM is < 1.9 µL/min/1e6 cells. For the same compound, the “Extraction Ratio (ER)” value in the data set on human hepatocytes is reported as <0.22.

As for “tert-butyl ((2^1S,2^4S,5^2R,5^3S)-6-oxo-3,11-dioxa-5(2,1)-piperidina-1(1,2)-benzena-2(1,4)-cyclohexanacycloundecaphane-5^3-yl)carbamate”, in data set [2] (16-membered ring, DMF/MeCN 1:2, 16.3 mM, 25.0 °C), the ring closure, yield after HPLC worked out at 88.1%.

Values taken from patent US12054495B2, “Substituted macrocyclic compounds and related methods of treatment” (Alkermes, Inc., priority 2019, dated 2024).
